Data: patent US20190330197A1, “SUBSTITUTED NAPHTHALENE DIIMIDES AND THEIR USE” (UCL Business PLC, priority 2015, published 2019)

What was measured:
[1] = system: Hsp90A sequence from the HSP90 promoter; assay: FRET quadruplex stabilisation assay, Hsp90A; format: binding; details: compound at 1 μM, 60 mM potassium cacodylate buffer pH 7.4
Source text: (§1) The ability of the naphthalene diimide compounds to stabilize quadruplex DNA sequences was investigated using a fluorescence resonance energy transfer (FRET) assay modified to be used as a high-throughput screen in a 96-well format. Several quadruplex sequences were studied (including the human telomeric G-quadruplex DNA sequence 5′-FAM-d(GGG[TTAGGG]3)-TAMRA-3′ and the duplex sequence 5′-FAM-d[…]-HEG-[…]-TAMRA-3′ (HEG linker: [(—CH2—CH2—O—)6.
(§2) The labelled oligonucleotides have attached to them the donor fluorophore FAM: 6-carboxyfluorescein and the acceptor fluorophore TAMRA: 6-carboxytetramethylrhodamine. The FRET probe sequences were diluted from stock to the correct concentration (400 nM) in a 60 mM potassium cacodylate buffer (pH 7.4) and then annealed by heating to 85° C. for 10 min, followed by cooling to room temperature in the heating block. The compound was stored as a 10 mM stock solution in DMSO; final solutions (at 2× concentration) were prepared using 10 mM HCl in the initial 1:10 dilution, after which 60 mM potassium cacodylate buffer (pH 7.4) was used in all subsequent steps. The maximum HCl concentration in the reaction volume (at a ligand concentration of 20 μM) is thus 200 μM, well within the range of the buffer used. Relevant controls were also performed to check for interference with the assay. 96-Well plates (MJ Research, Waltham, Mass.) were prepared by aliquoting 50 μl of the annealed DNA into each well, followed by 50 μl of the compound solutions. Measurements were made on a DNA Engine Opticon (MJ Research) with excitation at 450-495 nm and detection at 515-545 nm. Fluorescence readings were taken at intervals of 0.5° C. in the range 30-100° C., with a constant temperature being maintained for 30 s prior to each reading to ensure a stable value. Final analysis of the data was carried out using a script written in the program Origin 7.0 (OriginLab Corp., Northampton, Mass.). The advanced curve-fitting function in Origin 7.0 was used for calculation of ΔTm values. All determinations were performed in triplicate or better. Esds in ΔTm are ±0.1° C.

[2] = system: Hsp90B sequence from the HSP90 promoter; assay: FRET quadruplex stabilisation assay, Hsp90B; format: binding; details: compound at 1 μM, 60 mM potassium cacodylate buffer pH 7.4
Source text: as §1, §2

[3] = system: Kras32 sequence from the promoter region of the kras gene; assay: FRET quadruplex stabilisation assay, Kras32; format: binding; details: compound at 1 μM, 60 mM potassium cacodylate buffer pH 7.4
Source text: as §1, §2

[4] = system: Bcl-2 sequence from the promoter region of the bcl-2 gene; assay: FRET quadruplex stabilisation assay, Bcl-2; format: binding; details: compound at 1 μM, 60 mM potassium cacodylate buffer pH 7.4
Source text: as §1, §2

[5] = system: Tloop (representing duplex DNA); assay: FRET assay, Tloop duplex DNA; format: binding; details: compound at 1 μM, 60 mM potassium cacodylate buffer pH 7.4
Source text: as §1, §2

[6] = system: WI38 (lung fibroblast) cells; assay: SRB growth inhibition, WI38; format: cell-based, human; details: 96 hr, SRB assay; read-out: short-term 96 hr IC50 WI38
Method: Human cancer cell lines and the somatic human cell line WI-38 (lung fibroblast) were purchased from the American Type Culture Collection. Cell lines were maintained in appropriate medium supplemented with 10% foetal bovine serum (Invitrogen, UK), 2 mM L-glutamine (Invitrogen, Netherlands), and other components as specified by the suppliers. Cell lines were maintained at 37° C., 5% CO2 and routinely passaged. Drugs were dissolved in DMSO and filtered through 0.22 μm pore-size filter units before addition to cell line appropriate media. Cellular growth inhibition was measured using the sulforhodamine B (SRB) assay in 96 well plates. Fifty percent inhibitory concentrations (IC50) were determined by taking the mean absorbance at 540 nm for each drug concentration expressed as a percentage of the absorbance of untreated control wells.

[7] = system: subcutaneous xenograft of the pancreatic tumour cell line MiaPaCa-2; assay: Antitumour activity in MiaPaCa-2 subcutaneous xenograft; format: in vivo, CD1 nude mice; details: 15 mg/kg IV twice weekly, FIG. 1
Source text: Study the therapeutic effect of compound 4c (MM41-tri) in comparison to MM41 and Gemcitabine in CD1 nude mice carrying a subcutaneous xenograft of the pancreatic tumour cell line MiaPaCa-2 (5×10^6 cells in the right flank) grown with Matrigel.
• 1 Inoculate SC 5×10^6 Miapaca-2 cells in the right flank (unsupplemented RPMI+Matrigel). • 2 Wait for tumours to establish subcutaneously (approx. 11 days). • 3 Measure size of the tumours weekly until they reach a mean size of 0.1 cm^3. At this stage of the development of the tumours, mice are ready to begin the therapy study. • 4 Re group mice to form 5 therapeutic groups constituted of 8 mice each, carrying approximately 0.1 cm^3 average of the tumour size per group. • 5 Administered corresponding dose of MM41 or compound 4c or Gemcitabine by IV. • Group 1: 8 mice treated with 15 mg/Kg of Gemcitabine twice weekly dose. • Group 2: 8 mice treated with 15 mg/Kg of MM41 (tetrasubstituted ND compound) twice weekly dose. • Group 3: 8 mice treated with 15 mg/Kg of Compound 4c twice weekly dose. • Group 4: 8 mice treated with 10 mg/Kg of Compound 4c twice weekly dose. • Group 5: 8 control mice treated with saline only twice weekly.

O=C1c2ccc3c4c(c(NCCN5CCCC5)cc(c24)C(=O)N1CCCN1CCOCC1)C(=O)N(CCCN1CCOCC1)C3=O [Compound 4c, 2,7-bis(3-morpholinopropyl)-4-((2-(pyrrolidin-1-yl)ethyl)amino)benzo[Imn][3,8]phenanthroline-1,3,6,8(2H,7H)-tetraone]
ΔTm Hsp90A [1]: 15.7 °C | ΔTm Hsp90B [2]: 12.7 °C | ΔTm Kras32 [3]: 9.6 °C | ΔTm Bcl-2 [4]: 13.3 °C | ΔTm Tloop [5]: 0.6 °C | IC50 [6]: 1190 nM | anti-tumour response (tumour growth curve) [7]: highly significant anti-tumour response
